Earlier results on 2 compounds are cited in patent US9908851B2, “2-piperidinyl substituted N,3-dihydroxybutanamides” (Duke University, priority 2013, dated 2018).

Values after ≈ are worked out from the molar mass of the structure shown.

In the series the test system is N. gonorrhoeae 35/02 (drug-resistant strain). Particulars: strain 35/02; resistance profile of the strain.

The MIC is the lowest concentration that inhibits growth of the organism. Turning to `CO/N=C(\C(=O)N[C@@H]1C(=O)N2C(C(=O)O)=C(CSc3nc(=O)c(=O)[nH]n3C)CS[C@H]12)c1csc(N)n1` [ceftriaxone], the minimum inhibitory concentration (MIC) is 0.12 µg/mL (≈ 0.216 µM).
For the compound penicillin, the minimum inhibitory concentration (MIC) is 6 µg/mL.
